This passage reports IC50 results from ChEMBL document CHEMBL1667849, “Identification of small molecular inhibitors for Ero1p by structure-based virtual screening” (Bioorg Med Chem Lett, 2011).

The nature of experiment [1]: Inhibition of yeast Ero1p by fluorescence assay. Set-up: species or system Saccharomyces cerevisiae.
For another experiment, the target named is T1, ERO1-like protein alpha (Homo sapiens, UniProt Q96HE7).
T1 sequence (Q96HE7 whole entry): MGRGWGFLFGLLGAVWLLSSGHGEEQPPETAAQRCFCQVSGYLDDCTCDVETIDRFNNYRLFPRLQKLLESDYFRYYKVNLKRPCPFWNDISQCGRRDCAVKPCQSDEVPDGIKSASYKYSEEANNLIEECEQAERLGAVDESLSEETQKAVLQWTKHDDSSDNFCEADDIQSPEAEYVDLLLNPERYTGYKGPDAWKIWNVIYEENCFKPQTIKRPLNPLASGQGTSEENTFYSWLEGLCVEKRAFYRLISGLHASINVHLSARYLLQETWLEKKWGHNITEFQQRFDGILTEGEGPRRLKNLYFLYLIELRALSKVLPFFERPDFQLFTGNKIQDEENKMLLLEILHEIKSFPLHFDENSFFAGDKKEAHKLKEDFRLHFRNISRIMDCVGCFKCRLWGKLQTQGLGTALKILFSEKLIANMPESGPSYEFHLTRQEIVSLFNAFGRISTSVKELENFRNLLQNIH
The experiment in a line: Inhibition of human Ero1-Lalpha.

Each structure is given as a SMILES string.

For orientation: IC50 means the point on the concentration scale where inhibition reaches its midpoint. In the case of `COc1cc(/C=C2\C(=O)NN(c3ccc(Br)cc3)C2=O)cc(Br)c1OC(C)=O`, the figures for the IC50 (in experiment [1]; on ERO1-like protein alpha) were 31 µM and 3 µM, respectively. `COc1cc(Cl)cc(/C=C2\C(=O)NN(c3ccc(F)c(Cl)c3)C2=O)c1O` yielded an IC50 against ERO1-like protein alpha of 38 µM. That is a double-digit micromolar value. As for `COc1ccc(/C=C2/C(=O)N(c3ccc(Cl)cc3)N=C2C(F)(F)F)cc1OC`, the figures for the IC50 (in experiment [1]; at ERO1-like protein alpha) were 73 µM and 8 µM, respectively. For the compound `COc1cc(/C=C2/N=C(c3ccc4ccccc4c3)OC2=O)ccc1OC(C)=O`, the IC50 against ERO1-like protein alpha amounted to 54 µM. On the same count and under the same terms, the result for `O=C(Nc1sc(-c2ccccc2)cc1C(=O)O)c1ccc(Br)cc1` reads 67 µM; that for `O=C(N/N=C1\C(=O)N(Cc2cccc([N+](=O)[O-])c2)c2ccccc21)c1cc2ccccc2cc1O`, 108 µM. With `O=C(Cn1cnc([N+](=O)[O-])c1[N+](=O)[O-])Nc1cc(Oc2ccccc2)cc([N+](=O)[O-])c1`, the IC50 in experiment [1] is above 300 µM; against ERO1-like protein alpha, 10 µM. As for `O=C(Nc1cc2c(cc1C(=O)O)C(=O)c1ccccc1C2=O)c1ccc([N+](=O)[O-])cc1`, inhibition against ERO1-like protein alpha was half-maximal at 37 µM (IC50). As for `O=C1NC(=O)N(c2ccc(Cl)cc2)C(=O)/C1=C/c1ccc(O)c(O)c1`, the midpoint of inhibition against ERO1-like protein alpha, the IC50, lay at 11 µM. On the same count and under the same terms, the result for `CCOc1cc(/C=C2\C(=O)NC(=O)N(c3ccc(C)cc3)C2=O)ccc1OCCOc1cccc2ccccc12` reads 17 µM. At ERO1-like protein alpha, `COc1ccc(N2C(=O)NC(=O)/C(=C\c3ccc(OCCOc4cccc(OC)c4)c(OC)c3)C2=O)cc1` registered an IC50 of 24 µM. The IC50 values of the last two compounds are within 1.5-fold of each other. Same read-out and setting: to `O=C1NC(=O)N(c2ccc(Cl)cc2)C(=O)/C1=C/Nc1cccc(O)c1` belongs 80 µM.
